Source: patent US10973840B2, “Methods of sensitizing tumor cells to weak base chemotherapeutic drugs” (SOCPRA SCIENCES SANTÉ ET HUMAINES S.E.C., priority 2017, dated 2021)
pIC50: −log10 of the molar value. Read-outs that look alike come from different tables or passages of the source.

Legend:
[1] = test system: HT-1080 overexpressing NHE6^527-588 peptide; assay: MTT cell viability assay in HT-1080 expressing NHE6^527-588 or scrambled peptide; format: cell-based, human; conditions: for pIC50: Homo sapiens, read-out: IC50 of doxorubicin
Protocol: peGFP-N3-NHE6 was generously provided by Hiroshi Kanazawa (Osaka University, Japan). pcDNA3-HA/NHE6 was constructed from peGFP-N3-NHE6. For this, the entire NHE6 coding sequence was excised with BamHI and EcoRI restriction enzymes and cloned in pcDNA3-HA vector. pcDNA3-HA/NHE6^527-588 was designed from pcDNA3-HA/NHE6 using the following primers: […]
HT-1080 cells were stably transfected with Polyethylenimine (PEI, MirusBio) and positive cells were selected with Geneticin™ (G418) at 400 μg/mL. In the case of MDA-MB-231 cells, plasmids were transfected using Lipofectamine™ 2000 ([…]) and G418 was added to cell cultures at a concentration of 2 mg/mL.
(§1) Cells (5×10^3) were cultured in 96-well plates and pre-incubated under 21% O2 or 1% O2 for 4 h following the addition of drugs for 72 h. Cell viability was measured using the 3-(4,5-dimethylthiazol-2-yl)-2,5-diphenyltetrazolium bromide (MTT) dye (Life Technologies) according to manufacturer's instructions. Because hypoxic conditions may affect the reduction of MTT to formazan, incubation of all cell cultures with MTT were performed under normoxic conditions. Each experiment was performed in triplicate and at least three independent experiments were performed. Log-scale dose-response data were plotted on a graph and a three-parameter non-linear regression was applied to determine IC50 values. For calculation of the IC50s, both normoxic and hypoxic drug-treated samples were normalized with their untreated counterpart.
The middle portion (position 527-588) of the NHE6 cytoplasmic tail has previously been reported to interact with RACK1^31. Stable HT-1080 cells expressing the NHE6^527-588 fragment or a scrambled counterpart were generated.

[2] = test system: MDA-MB-231 breast cancer cells; assay: MTT cell viability assay, MDA-MB-231; format: cell-based, human; conditions: for pIC50: Homo sapiens; for Fold change: MDA-MB-231, IC50 at 1% O2 to IC50 at 21% O2
Protocol: as §1
To assess the role of pH in hypoxia-induced resistance to anthracyclines, the human breast cancer MDA-MB-231 and fibrosarcoma HT-1080 cell lines were incubated in the presence or absence of the commonly used anthracycline drugs, doxorubicin (Dox), daunorubicin (Dau) and the anthracycline analog drug, mitoxantrone (Mtx), under hypoxic (1% O2) or normoxic (21% O2) conditions for 72 hours. Cell viability was then assessed using the MTT assay. The impact of extracellular pH on Dox uptake by HT-1080 was also assessed.

HT1080 cancer cell line = assay: MTT assay, doxorubicin with C2 or C2WY→AA peptide; format: cell-based; conditions: Homo sapiens
Protocol: The IC50 (half-maximal inhibitory concentration) values of doxorubicin for HT1080 cancer cell line treated with the C2 peptide ([…] (SEQ ID NO: 7)) or the C2WY→AA peptide ([…] (SEQ ID NO: 60)) were determined in normoxia or hypoxia.
Cells (5×10^3) were cultured in 96-well plates and preincubated under 21% O2 or 1% O2 for 4 h following the addition of doxorubicin (dose response from 10^−1 to 10^5 nM) in the presence or absence of C2 and C2WY→AA peptides (SEQ ID NOs: 7 and 60) for 72 h. Cell viability was measured using the MTT dye (Life Technologies) according to the manufacturer's instructions. Because hypoxic conditions may affect the reduction of MTT to formazan, incubation of all cell cultures with MTT were performed under normoxic conditions. Each experiment was performed in triplicate. Log-scale dose-response data were plotted on a graph and a three-parameter nonlinear regression was applied to determine IC50 values. Data are presented as the mean (nM).

- pIC50 ([1]; HT-1080, HT-1080 expressing scrambled peptide (scr), 1% O2): 6.28
- pIC50 ([1]; HT-1080, HT-1080 expressing scrambled peptide (scr), 21% O2): 6.93
- pIC50 ([1]; HT-1080, HT-1080 overexpressing NHE6^527-588 peptide, 1% O2): 6.65
- pIC50 ([1]; HT-1080, HT-1080 overexpressing NHE6^527-588 peptide, 21% O2): 6.86
- pIC50 ([2]; MDA-MB-231, 72 h, MDA-MB-231, 1% O2, 72 h, read-out: IC50 of anthracyclines): 6.16
- pIC50 ([2]; MDA-MB-231, 72 h, MDA-MB-231, 21% O2, 72 h, read-out: IC50 of anthracyclines): 6.90
- pIC50 ([2]; MDA-MB-231, MDA-MB-231, 1% O2, Baf 100 nM or Cq 10 μM where combined, read-out: IC50 of doxorubicin, cells treated with neutralizing agents): 6.07
- pIC50 ([2]; MDA-MB-231, MDA-MB-231, 21% O2, Baf 100 nM or Cq 10 μM where combined, read-out: IC50 of doxorubicin, cells treated with neutralizing agents): 6.78
- pIC50 (HT1080 cancer cell line; HT-1080, Experiment 1, peptide: Vehicle, 1% O2): 7.08
- pIC50 (HT1080 cancer cell line; HT-1080, Experiment 1, peptide: Vehicle, 21% O2): 7.80
- pIC50 (HT1080 cancer cell line; HT-1080, Experiment 1, with C2 0.25 μM, 1% O2): 7.40
- pIC50 (HT1080 cancer cell line; HT-1080, Experiment 1, with C2 0.25 μM, 21% O2): 7.91
- pIC50 (HT1080 cancer cell line; HT-1080, Experiment 1, with C2 5.00 μM, 1% O2): 7.41
- pIC50 (HT1080 cancer cell line; HT-1080, Experiment 1, with C2 5.00 μM, 21% O2): 7.76
- pIC50 (HT1080 cancer cell line; HT-1080, Experiment 1, with C2WY→AA 0.25 μM, 1% O2): 7.00
- pIC50 (HT1080 cancer cell line; HT-1080, Experiment 1, with C2WY→AA 0.25 μM, 21% O2): 7.67
- pIC50 (HT1080 cancer cell line; HT-1080, Experiment 1, with C2WY→AA 5.00 μM, 1% O2): 7.12
- pIC50 (HT1080 cancer cell line; HT-1080, Experiment 1, with C2WY→AA 5.00 μM, 21% O2): 7.79
- pIC50 (HT1080 cancer cell line; HT-1080, Experiment 2, peptide: Vehicle, 1% O2): 7.15
- pIC50 (HT1080 cancer cell line; HT-1080, Experiment 2, peptide: Vehicle, 21% O2): 7.87
- pIC50 (HT1080 cancer cell line; HT-1080, Experiment 2, with C2 0.25 μM, 1% O2): 7.51
- pIC50 (HT1080 cancer cell line; HT-1080, Experiment 2, with C2 0.25 μM, 21% O2): 7.93
- pIC50 (HT1080 cancer cell line; HT-1080, Experiment 2, with C2 20.0 μM, 1% O2): 7.80
- pIC50 (HT1080 cancer cell line; HT-1080, Experiment 2, with C2 20.0 μM, 21% O2): 8.00
- pIC50 (HT1080 cancer cell line; HT-1080, Experiment 2, with C2WY→AA 0.25 μM, 1% O2): 7.00
- pIC50 (HT1080 cancer cell line; HT-1080, Experiment 2, with C2WY→AA 0.25 μM, 21% O2): 7.90
- pIC50 (HT1080 cancer cell line; HT-1080, Experiment 2, with C2WY→AA 20.0 μM, 1% O2): 7.13
- pIC50 (HT1080 cancer cell line; HT-1080, Experiment 2, with C2WY→AA 20.0 μM, 21% O2): 7.96
SMILES: COc1cccc2c1C(=O)c1c(O)c3c(c(O)c1C2=O)C[C@@](O)(C(=O)CO)C[C@@H]3O[C@H]1C[C@H](N)[C@H](O)[C@H](C)O1 [Dox, doxorubicin]
- Fold ([1]; NHE6^527-588, 1% O2 vs 21% O2): 1.6 fold
- Fold ([1]; scr, 1% O2 vs 21% O2): 4.4 fold
- Fold change [2]: 5.5 fold
- Fold change ([2]; Baf 100 nM or Cq 10 μM where combined): 5.1 fold
